The conditions of series [1]: cited from earlier work.
For series [2] the following is noted: nicotine salt complex.
In series [3] the test system is respiratory tract. To be noted: user perception, nicotine citrate compared with nicotine hexanoate.
For series [4] the following is noted: free-base nicotine; depending on concentration; cited from earlier work.
The mark [5] stands for this setting: Table 7, nicotine salt (organic acid).
Where [6] appears, read: Table 7, nicotine salt (organic acid), second value.
Where [7] appears, read: Table 7, nicotine salt (organic acid), third value printed in the cell.
[8] abbreviates: Table 5, organic acid, second value.

The values below come from patent US20200315241A1 (Nude Nicotine, Inc., priority 2017, published 2020).

Where two headings read alike, the source gives them in different places.

Consider Nicotine 3-hydroxyglutarate, for which the pKa in series [1] (setting [5]) is given as 3.52.
For Nicotine acetylsalicylate, in series [1] (setting [5]), the pKa is given as 3.49.
Take `CN1CCCC1c1cccnc1.NCC(=O)O` (centres unmarked) [Nicotine glycinate]: in series [1] (setting [5]), the pKa was 2.34.
Regarding Nicotine asparaginate, the pKa in series [1] (setting [5]) is listed as 2.02.
`CCC(=O)O.CN1CCCC1c1cccnc1` (centres unmarked) [Nicotine propionate]: in series [2], the pH is reported as ~6.5.
Regarding `CN1CCCC1c1cccnc1.N[C@@H](Cc1ccccc1)C(=O)O` (centres unmarked) [Nicotine phenylalanate], the pKa in series [1] (setting [5]) is 1.83.
Turning to Nicotine lysinate, the pKa in series [1] (setting [5]) is on record as 2.18.
As for Nicotine valerate, in series [1] (setting [5]), the pKa was 4.84.
On to `CC(=O)CC(=O)O` [3-Oxobutanoic Acid (Acetoacetic Acid), 3-Oxobutanoic Acid], for which the pKa in series [1] (Table 5, organic acid) is 3.58.
With Nicotine 2-hydroxyisocaproate, the pKa in series [1] (setting [5]) is listed as 4.26.
In the case of Nicotine valinate, in series [1] (setting [5]), the pKa is recorded as 2.32.
`CN1CCCC1c1cccnc1.O=C(O)C(=O)O.O=C(O)CC(O)C(=O)O` (centres unmarked) [Nicotine N-malate-N′-oxalate]: the pH in series [2] is reported as ~5.5.
Regarding `CN1CCCC1c1cccnc1.O=C(O)C=C(CC(=O)O)C(=O)O` (stereo not drawn) [Nicotine trans-aconitate], the results for the pKa in series [1] (setting [5]) and in series [1] (setting [6]) were 2.80 and 4.46, respectively.
Regarding `O=C(O)/C=C(/CC(=O)O)C(=O)O` [cis-Aconitic Acid], in series [1] (Table 5, organic acid), the pKa is reported as 1.95.
In the case of Nicotine cysteinate, in series [1] (setting [5]), the pKa is 1.96.
Nicotine acetoacetate: in series [1] (setting [5]), the pKa is reported as 3.58.
On to `CN1CCCC1c1cccnc1.O=C(O)CC(C(=O)O)C(O)C(=O)O` (centres unmarked) [Nicotine isocitrate], for which the pKa in series [1] (setting [5]) is recorded as 3.29; in series [1] (setting [6]), 4.71; in series [1] (setting [7]), 6.40.
Regarding Nicotine cinnamate, in series [1] (setting [5]), the pKa is 4.44.
Take Nicotine levulinate: the pKa in series [1] (setting [5]) and in series [1] was 4.64 throughout.
For Nicotine tryptophanate, the pKa in series [1] (setting [5]) is reported as 2.83.
For `O=C(O)CC(O)C(=O)O` (centres unmarked) [Malic Acid], the pKa was 3.51 in series [1] (Table 5, organic acid) and 5.03 in series [1] (setting [8]). The pKa1 in series [1] (pH for binding of second carboxylic acid group) is 5.03.
Regarding Nicotine glutarate, in series [1] (setting [5]), the pKa was 4.34.
Nicotine isocaproate: the pKa in series [1] (setting [5]) is 5.09.
As to `CC(=O)C(=O)O` [Pyruvic Acid], the pKa in series [1] (Table 5, organic acid) was 2.50.
As for `CN1CCCC1c1cccnc1.O=C(O)CC(O)C(=O)O` (centres unmarked) [Nicotine malate], in series [2], the pH entry is “around 6.5”.
With Nicotine 4-hydroxybenzoate, the pKa in series [1] (setting [5]) is 4.54.
`CN1CCCC1c1cccnc1.O=C(O)CC(O)(CC(=O)O)C(=O)O` [Nicotine citrate]: the “throat hit / sensation in the respiratory tract” value in series [3] is “stronger throat hit”.
As to Nicotine gluconate, the pKa in series [1] (setting [5]) was 3.86.
Regarding `O=C(O)C[C@H](C(=O)O)[C@@H](O)C(=O)O` [Isocitric Acid], the pKa in series [1] (Table 5, organic acid) is reported as 3.29; in series [1] (setting [8]) it was 4.71; in series [1] (Table 5, organic acid, third value printed in the cell) it was 6.40.
For the compound `CN1CCCC1c1cccnc1.C[C@H](N)C(=O)O` (centres unmarked) [Nicotine alanate], the pKa in series [1] (setting [5]) was 2.34.
Turning to Nicotine vanillate, in series [1] (setting [5]), the pKa is on record as 4.51.
As for `CN1CCCC1c1cccnc1.O=C(O)C=C(CC(=O)O)C(=O)O` (stereo not drawn) [Nicotine cis-aconitate], the pKa in series [1] (setting [5]) was 1.95.
As to `C#CC(=O)O.CN1CCCC1c1cccnc1` (centres unmarked) [Nicotine propiolate], in series [1] (setting [5]), the pKa is given as 1.84.
Nicotine phthalate: the pKa in series [1] (setting [5]) is 2.76; in series [1] (setting [6]), 4.92.
Nicotine hexanoate: in series [1] (setting [5]), the pKa is reported as 4.88.
As to Oxalic Acid, the pKa in series [1] (Table 5, organic acid) is on record as 1.46; in series [1] (setting [8]), 4.40.
Regarding `CN1CCCC1c1cccnc1` (centres unmarked) [nicotine], the pH in series [4] is given as ~10.
With `CN1CCCC1c1cccnc1.O=C(O)c1cc(C(=O)O)cc(C(=O)O)c1` [Nicotine trimesate], the pKa is on record as 3.12 in series [1] (setting [5]), 3.89 in series [1] (setting [6]) and 4.70 in series [1] (setting [7]).
`CC(=O)O.CN1CCCC1c1cccnc1` (centres unmarked) [Nicotine acetate]: in series [2], the pH is ~6.5.
Take Nicotine pyruvate: in series [1] (setting [5]), the pKa is recorded as 2.50.
As to Nicotine methioninate, the pKa in series [1] (setting [5]) is given as 2.28.

Broadly, the pKa is the negative logarithm of the acid dissociation constant.
